Series [1] in a line: Oral bioavailability in BomTac:NMRI-Foxn1nu mouse at 20 mg/kg, administered as suspension. The following applies: in vivo. Type of series: ADME, organism-based.
Series [2] can be described thus: Apparent permeability in human Caco2 cells across apical side to basolateral side at 10 uM by LC-MS/MS analysis. Type of series: ADME, cell-based. The settings on record: Caco-2. On the technique in general: Caco-2 monolayers are a common model of the intestinal barrier.
Series [3] is described as follows: Cmax in BomTac:NMRI-Foxn1nu mouse at 180 mg/kg, po administered as suspension. In kind it is ADME, organism-based. Details: dose 180 mg/kg, route oral. The settings on record: in vivo.
The nature of series [4]: Aqueous solubility of the compound at pH 6.8 by UPLC/UV method. The settings on record: buffer. Type of series: physicochemical.
Series [5] in a line: Volume of distribution at steady state in BomTac:NMRI-Foxn1nu mouse plasma at 5 mg/kg, iv administered as bolus. Type of series: ADME, organism-based. The settings on record: read-out: Vdss.
Series [6] in a line: AUC (0 to last) in BomTac:NMRI-Foxn1nu mouse at 20 mg/kg, po administered as suspension. Type of series: ADME, organism-based. On the set-up: dose 20 mg/kg, time 0 - last, route oral. The following applies: in vivo.
The nature of series [7]: (§1) Oral bioavailability in BomTac:NMRI-Foxn1nu mouse at 180 mg/kg, administered as suspension. The settings on record: BomTac:NMRI-Foxn1nu, in vivo. Type of series: ADME, organism-based.
The nature of series [8]: Cmax in BomTac:NMRI-Foxn1nu mouse at 20 mg/kg, po administered as suspension. Type of series: ADME, organism-based. Details: dose 20 mg/kg, route oral. The settings on record: in vivo.
The test system of series [9] is Mus musculus. The series is described as follows: Clearance in BomTac:NMRI-Foxn1nu mouse plasma at 5 mg/kg, iv administered as bolus. In kind it is ADME, organism-based. The following applies: in vivo.
Series [10] is described as follows: AUC (0 to last) in BomTac:NMRI-Foxn1nu mouse at 180 mg/kg, po administered as suspension. Type of series: ADME, organism-based. Details: dose 180 mg/kg, time 0 - last, route oral. The settings on record: in vivo.
Series [11] deals with Mus musculus. The series is described as follows: AUC (0 to last) in plasma of CIEA-NOG mouse xenografted with human EOL-1 cells at 180 mg/kg, po administered qd for day 5 to 17 and day 20 to 22 post tumor transplantation. Type of series: ADME, organism-based, EOL1. Details: dose 180 mg/kg, time 0 - last, route oral. The following applies: in vivo. Background: A xenograft is tissue or cells of one species grown in another, often human tumour cells in immunodeficient mice.

In series [12] the test system is Mus musculus. The series is described as §1. Type of series: ADME, organism-based. The following applies: in vivo.

Where only a bound is given, the exact number is not on record here.

Consider `COc1cc(-c2cn(C)c(=O)c3cnccc23)cc(OC)c1CN(C)C`, for which the bioavailability (in general, dose-corrected exposure relative to a reference, in per cent) in [1] was 39%; in series [7], 64%. The Papp A→B (in general, the apparent permeability from the apical to the basolateral side of a cell layer) at 10 µM in [2] is 1.4 ×10⁻⁶ cm/s. Moreover, the Cmax (commonly the highest concentration seen after dosing) is 25 µM in [3] and 3 µM in [8]. Further, the solubility (as a rule, the concentration that dissolves in the medium under given conditions) in series [4] is more than 91 µg/mL. Further, the Vd in [5] stood at 1.6 L/kg. The AUC(0-t) (commonly the area under the concentration-time curve up to a stated or last time point) came to 7.5 µM·h in series [6] and 108 µM·h in [10]. Besides, the CL in the series on Mus musculus [9] stood at 57%.
For `COc1cc(-c2cn(C)c(=O)c3cnccc23)c(OC)cc1CN(C)C`, the bioavailability in series [1] came to 88%. Also, the apical-to-basolateral permeability (Papp A→B) at 10 µM in series [2] was 11 ×10⁻⁶ cm/s. Also, the peak concentration (Cmax) stood at 35 µM in [3] and 5.4 µM in series [8]. In series [4], this molecule yielded a solubility of more than 90 µg/mL. For the same molecule, in series [5], the Vd was 2.1 L/kg. Further, the exposure AUC(0-t) in series [6] came to 15 µM·h; in series [10] it was 226 µM·h. This molecule gave an AUClast in the series on Mus musculus [11] of 268 µM·h. Further, the F with Mus musculus [12] came out at 151%. Also, the CL in the series with Mus musculus [9] came to 65%.
